Structures are written as SMILES. “Also recorded” adds a separate entry of the source.

Assay type in all cases: cell-based
For one test, the target named is TRPV1 (Homo sapiens, UniProt Q8NER1). Put plainly: Selectivity Ca2+ assay in TRPV1-expressing HEK293 cells. As to conditions: 1s 50 μM; Fluo-8.
For another test, the target named is T1, mouse TRPC4 (Mus musculus, UniProt Q9QUQ5).
T1 sequence (Q9QUQ5 1-974): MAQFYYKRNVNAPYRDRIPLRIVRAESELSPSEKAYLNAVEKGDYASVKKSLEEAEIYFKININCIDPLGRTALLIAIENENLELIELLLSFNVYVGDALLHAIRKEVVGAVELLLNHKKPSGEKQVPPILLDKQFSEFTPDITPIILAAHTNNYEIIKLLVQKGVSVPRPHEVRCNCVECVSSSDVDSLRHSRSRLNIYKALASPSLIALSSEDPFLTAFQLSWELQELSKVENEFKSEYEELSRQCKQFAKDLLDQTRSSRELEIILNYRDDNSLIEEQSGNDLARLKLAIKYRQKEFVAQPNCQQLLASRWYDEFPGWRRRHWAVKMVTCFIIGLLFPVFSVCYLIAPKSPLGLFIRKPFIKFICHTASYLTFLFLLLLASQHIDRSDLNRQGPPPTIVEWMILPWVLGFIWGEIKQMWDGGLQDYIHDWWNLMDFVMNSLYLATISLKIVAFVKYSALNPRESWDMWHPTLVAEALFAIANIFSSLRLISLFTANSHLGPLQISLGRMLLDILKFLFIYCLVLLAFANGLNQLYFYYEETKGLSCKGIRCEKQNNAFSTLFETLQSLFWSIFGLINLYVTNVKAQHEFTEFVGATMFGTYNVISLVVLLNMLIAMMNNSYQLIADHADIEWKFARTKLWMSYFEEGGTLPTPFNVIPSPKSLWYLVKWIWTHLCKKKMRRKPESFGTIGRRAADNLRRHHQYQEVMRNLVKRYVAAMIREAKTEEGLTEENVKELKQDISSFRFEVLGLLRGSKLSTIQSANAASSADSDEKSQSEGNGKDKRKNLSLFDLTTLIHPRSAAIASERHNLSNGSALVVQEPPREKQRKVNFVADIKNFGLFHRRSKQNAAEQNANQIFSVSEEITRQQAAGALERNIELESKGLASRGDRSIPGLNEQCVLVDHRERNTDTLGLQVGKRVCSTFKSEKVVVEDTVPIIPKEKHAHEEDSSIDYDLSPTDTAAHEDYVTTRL
The test is described as follows: Selectivity assay in HEK293 cells co-expressing TRPC4 and μ-opioid receptor. The note with it: induced by DAMGO 1 μM.

The target of the next test is T2, mouse TRPC5 (Mus musculus, UniProt Q9QX29).
T2 sequence (Q9QX29 1-975): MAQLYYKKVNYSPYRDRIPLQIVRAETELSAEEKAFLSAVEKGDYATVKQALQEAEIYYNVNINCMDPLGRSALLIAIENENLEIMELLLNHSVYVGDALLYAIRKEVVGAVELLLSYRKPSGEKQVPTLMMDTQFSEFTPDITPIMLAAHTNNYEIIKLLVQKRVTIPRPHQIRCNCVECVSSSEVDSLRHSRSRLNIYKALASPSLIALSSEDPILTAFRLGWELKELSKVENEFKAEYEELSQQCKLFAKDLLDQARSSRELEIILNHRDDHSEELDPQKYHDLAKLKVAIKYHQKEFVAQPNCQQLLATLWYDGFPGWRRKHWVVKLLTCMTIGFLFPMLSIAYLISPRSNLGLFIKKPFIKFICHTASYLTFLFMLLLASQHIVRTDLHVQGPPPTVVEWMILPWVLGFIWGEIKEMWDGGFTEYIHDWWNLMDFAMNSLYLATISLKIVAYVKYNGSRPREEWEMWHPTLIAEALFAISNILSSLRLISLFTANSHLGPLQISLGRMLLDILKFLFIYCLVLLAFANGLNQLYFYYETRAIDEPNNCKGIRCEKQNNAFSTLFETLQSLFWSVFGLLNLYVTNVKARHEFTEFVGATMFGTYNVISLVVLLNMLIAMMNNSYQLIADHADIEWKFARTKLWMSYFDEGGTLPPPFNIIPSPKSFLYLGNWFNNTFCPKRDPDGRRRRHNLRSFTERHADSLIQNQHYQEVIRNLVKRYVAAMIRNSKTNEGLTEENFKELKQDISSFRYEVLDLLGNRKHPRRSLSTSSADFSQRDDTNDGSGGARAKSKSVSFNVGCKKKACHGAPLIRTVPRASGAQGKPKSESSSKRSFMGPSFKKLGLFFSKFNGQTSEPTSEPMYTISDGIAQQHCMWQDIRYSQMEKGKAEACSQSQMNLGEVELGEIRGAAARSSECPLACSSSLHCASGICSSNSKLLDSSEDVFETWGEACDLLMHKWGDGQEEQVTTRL
The test is described as follows: Selectivity Ca2+ assay in TRPC5-expressing HEK293 cells. As to conditions: 1s 50 μM; induced by 100 μM CCh; Fluo-8.

Another test has as its target T3, human TRPC3 (Homo sapiens, UniProt Q13507).
T3 sequence (Q13507 1-921): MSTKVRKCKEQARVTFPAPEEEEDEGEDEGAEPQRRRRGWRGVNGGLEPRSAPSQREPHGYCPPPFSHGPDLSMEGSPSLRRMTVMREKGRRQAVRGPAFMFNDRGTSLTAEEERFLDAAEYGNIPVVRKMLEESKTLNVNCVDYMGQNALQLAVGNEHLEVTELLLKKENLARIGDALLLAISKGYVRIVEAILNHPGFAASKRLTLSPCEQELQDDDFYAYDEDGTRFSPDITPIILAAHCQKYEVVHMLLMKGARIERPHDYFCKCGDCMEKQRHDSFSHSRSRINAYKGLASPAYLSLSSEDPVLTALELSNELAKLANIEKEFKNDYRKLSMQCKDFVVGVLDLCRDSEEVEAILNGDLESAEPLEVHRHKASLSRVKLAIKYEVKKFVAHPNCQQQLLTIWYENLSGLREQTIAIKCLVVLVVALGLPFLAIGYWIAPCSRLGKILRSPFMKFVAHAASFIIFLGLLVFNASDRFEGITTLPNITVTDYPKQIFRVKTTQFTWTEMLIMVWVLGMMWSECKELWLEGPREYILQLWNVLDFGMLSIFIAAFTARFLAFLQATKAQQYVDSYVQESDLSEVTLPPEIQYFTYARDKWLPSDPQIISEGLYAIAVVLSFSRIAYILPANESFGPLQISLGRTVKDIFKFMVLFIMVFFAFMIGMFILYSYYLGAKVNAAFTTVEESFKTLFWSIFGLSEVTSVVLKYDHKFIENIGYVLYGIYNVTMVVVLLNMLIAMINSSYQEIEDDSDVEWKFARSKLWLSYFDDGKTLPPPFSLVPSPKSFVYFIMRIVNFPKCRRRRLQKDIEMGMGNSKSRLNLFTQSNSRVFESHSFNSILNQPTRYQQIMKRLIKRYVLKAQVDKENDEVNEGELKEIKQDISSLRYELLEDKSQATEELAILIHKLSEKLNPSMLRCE
Put plainly: Fluorescence Ca2+ assay in TRPC3-HEK293 cells.

Chain of TRPV1 (Q8NER1 whole entry, species assumed): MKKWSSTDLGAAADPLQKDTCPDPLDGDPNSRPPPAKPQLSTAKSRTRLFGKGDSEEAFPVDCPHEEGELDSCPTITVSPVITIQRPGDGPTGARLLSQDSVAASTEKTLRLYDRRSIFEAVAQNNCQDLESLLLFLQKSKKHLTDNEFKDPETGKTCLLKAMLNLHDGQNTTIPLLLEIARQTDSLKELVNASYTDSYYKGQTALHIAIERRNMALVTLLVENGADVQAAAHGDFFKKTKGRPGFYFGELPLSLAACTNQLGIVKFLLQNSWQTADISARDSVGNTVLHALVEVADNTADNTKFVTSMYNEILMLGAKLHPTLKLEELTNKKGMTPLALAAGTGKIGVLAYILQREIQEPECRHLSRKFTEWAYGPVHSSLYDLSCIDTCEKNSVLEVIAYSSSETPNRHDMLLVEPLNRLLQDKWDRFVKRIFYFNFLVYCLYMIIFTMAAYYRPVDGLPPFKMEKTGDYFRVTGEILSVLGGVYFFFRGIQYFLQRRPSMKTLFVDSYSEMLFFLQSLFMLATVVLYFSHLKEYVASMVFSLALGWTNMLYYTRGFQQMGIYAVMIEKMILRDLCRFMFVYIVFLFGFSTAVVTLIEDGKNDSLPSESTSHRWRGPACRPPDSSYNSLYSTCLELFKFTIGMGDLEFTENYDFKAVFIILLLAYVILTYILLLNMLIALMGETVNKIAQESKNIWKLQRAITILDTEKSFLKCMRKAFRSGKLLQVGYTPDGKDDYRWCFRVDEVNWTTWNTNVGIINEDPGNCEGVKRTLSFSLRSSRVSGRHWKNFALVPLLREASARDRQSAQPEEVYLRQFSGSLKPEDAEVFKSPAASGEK

Turning to `COc1cccc2sc(N(CCN(C)C)C(=O)c3ccc4c(c3)CCCC4)nc12` [Compound 1s, N-(2-(dimethylamino)ethyl)-N-(4-methoxybenzo[d]thiazol-2-yl)-5,6,7,8-tetrahydronaphthalene-2-carboxamide], the “Effect on agonist-induced Ca2+ response, TRPV1” value at TRPV1 was “did not significantly affect”. Also, at mouse TRPC4, the “Effect on TRPC4” value is listed as “only partially inhibited”. The “Effect on agonist-induced Ca2+ response, TRPC5” value at mouse TRPC5 was “did not significantly affect; also recorded: no effect”. Moreover, it took 3.3 ± 0.13 µM to reach half-maximal inhibition on human TRPC3 (IC50).
